For the assay, the system named is JAK1-dependent STAT6 phosphorylation downstream of IL-13 stimulation in TF-1 human erythroleukemia cells. Description: cells. Particulars: TF-1, read-out: IL-13-pSTAT6 IC50.
What is called IC50 is the concentration at which inhibition is half-maximal. Regarding `O=C(NCCC1CCCN1)c1ccc(Nc2nc3c(C4=CCN(C(=O)CCC(F)(F)F)CC4)cccn3n2)cc1` (stereo not shown) [Example 2-316, N-(2-pyrrolidin-2-ylethyl)-4-[[8-[1-(4,4,4-trifluorobutanoyl)-3,6-dihydro-2H-pyridin-4-yl]-[1,2,4]triazolo[1,5-a]pyridin-2-yl]amino]benzamide], the concentration for half-maximal inhibition (IC50) amounted to 145 nM. Then `O=C(NCC1CCCN1)c1ccc(Nc2nc3c(C4=CCN(C(=O)CCC(F)(F)F)CC4)cccn3n2)cc1` (stereo not shown) [Example 2-317, N-(pyrrolidin-2-ylmethyl)-4-[[8-[1-(4,4,4-trifluorobutanoyl)-3,6-dihydro-2H-pyridin-4-yl]-[1,2,4]triazolo[1,5-a]pyridin-2-yl]amino]benzamide], with 228 nM. Then `O=C(CCC(F)(F)F)N1CC=C(c2cccn3nc(Nc4ccc(C(=O)N5CCNCC5)cc4)nc23)CC1` [Example 2-318, 4,4,4-trifluoro-1-[4-[2-[4-(piperazine-1-carbonyl)anilino]-[1,2,4]triazolo[1,5-a]pyridin-8-yl]-3,6-dihydro-2H-pyridin-1-yl]butan-1-one], with 37.7 nM; and `CC1CNCCN1C(=O)c1ccc(Nc2nc3c(C4=CCN(C(=O)CCC(F)(F)F)CC4)cccn3n2)cc1` (stereo not shown) [Example 2-319, 4,4,4-trifluoro-1-[4-[2-[4-(2-methylpiperazine-1-carbonyl)anilino]-[1,2,4]triazolo[1,5-a]pyridin-8-yl]-3,6-dihydro-2H-pyridin-1-yl]butan-1-one], with 24.3 nM. For `O=C(CCC(F)(F)F)N1CC=C(c2cccn3nc(Nc4ccc(C(=O)N5CC[C@H]6CNC[C@H]65)cc4)nc23)CC1` [Example 2-320, 1-[4-[2-[4-[(3aS,6aS)-3,3a,4,5,6,6a-hexahydro-2H-pyrrolo[2,3-c]pyrrole-1-carbonyl]anilino]-[1,2,4]triazolo[1,5-a]pyridin-8-yl]-3,6-dihydro-2H-pyridin-1-yl]-4,4,4-trifluoro-butan-1-one], the half-inhibitory concentration (IC50) stood at 120 nM. As for `O=C(CCC(F)(F)F)N1CC=C(c2cccn3nc(Nc4ccc(C(=O)N5C[C@H]6CNC[C@H]6C5)cc4)nc23)CC1` [Example 2-321, 1-[4-[2-[4-[(3aR,6aS)-2,3,3a,4,6,6a-hexahydro-1H-pyrrolo[3,4-c]pyrrole-5-carbonyl]anilino]-[1,2,4]triazolo[1,5-a]pyridin-8-yl]-3,6-dihydro-2H-pyridin-yl]-4,4,4-trifluoro-butan-1-one], the half-maximal inhibitory concentration (IC50) was found to be 250 nM.

With `O=C(NC1CC2(CCNCC2)C1)c1ccc(Nc2nc3c(C4=CCN(C(=O)CCC(F)(F)F)CC4)cccn3n2)cc1` [Example 2-322, N-(7-azaspiro[3.5]nonan-2-yl)-4-[[8-[1-(4,4,4-trifluorobutanoyl)-3,6-dihydro-2H-pyridin-4-yl]-[1,2,4]triazolo[1,5-a]pyridin-2-yl]amino]benzamide], the concentration for half-maximal inhibition (IC50) turned out to be 104 nM. As for `N[C@]12C[C@H]1CN(C(=O)c1ccc(Nc3nc4c(C5=CCN(C(=O)CCC(F)(F)F)CC5)cccn4n3)cc1)C2` [Example 2-323], the 50% inhibitory concentration (IC50) was found to be 17.5 nM. Turning to `CN1CCCCC1C1CCCN1C(=O)c1ccc(Nc2nc3c(C4=CCN(C(=O)CCC(F)(F)F)CC4)cccn3n2)cc1` (stereo not shown) [Example 2-324, 4,4,4-trifluoro-1-[4-[2-[4-[2-(1-methyl-2-piperidyl)pyrrolidine-1-carbonyl]anilino]-[1,2,4]triazolo[1,5-a]pyridin-8-yl]-3,6-dihydro-2H-pyridin-yl]butan-1-one], the 50% inhibitory concentration (IC50) was found to be 8.2 nM.

As to `CN(C)C(=O)C1CN(C(=O)c2ccc(Nc3nc4c(C5=CCN(C(=O)CCC(F)(F)F)CC5)cccn4n3)cc2)CCN1C` (stereo not shown) [Example 2-325, N,N,1-trimethyl-4-[4-[[8-[1-(4,4,4-trifluorobutanoyl)-3,6-dihydro-2H-pyridin-4-yl]-[1,2,4]triazolo[1,5-a]pyridin-2-yl]amino]benzoyl] piperazine-2-carboxamide], the half-maximal inhibitory concentration (IC50) amounted to 191 nM.

For the compound `CN1C[C@@H]2CCN(C(=O)c3ccc(Nc4nc5c(C6=CCN(C(=O)CCC(F)(F)F)CC6)cccn5n4)cc3)[C@@H]2C1` [Example 2-326, 1-[4-[2-[4-[(3aS,6aS)-5-methyl-2,3,3a,4,6,6a-hexahydropyrrolo[2,3-c]pyrrole-1-carbonyl]anilino]-[1,2,4]triazolo[1,5-a]pyridin-8-yl]-3,6-dihydro-2H-pyridin-1-yl]-4,4,4-trifluoro-butan-1-one], the IC50 worked out at 4.2 nM. Then `CN1CCC2(C1)CN(C(=O)c1ccc(Nc3nc4c(C5=CCN(C(=O)CCC(F)(F)F)CC5)cccn4n3)cc1)C2` [Example 2-328, 4,4,4-trifluoro-1-[4-[2-[4-(7-methyl-2,7-diazaspiro[3.4]octane-2-carbonyl)anilino]-[1,2,4]triazolo[1,5-a]pyridin-8-yl]-3,6-dihydro-2H-pyridin-1-yl]butan-1-one], with 12.3 nM. Then `O=C(CCC(F)(F)F)N1CC=C(c2cccn3nc(Nc4ccc(C(=O)N5CCN(C6CCCCC6)CC5)cc4)nc23)CC1` [Example 2-329, 1-[4-[2-[4-(4-cyclohexylpiperazine-1-carbonyl)anilino]-[1,2,4]triazolo[1,5-a]pyridin-8-yl]-3,6-dihydro-2H-pyridin-1-yl]-4,4,4-trifluoro-butan-1-one], with 8.3 nM; and `CC(C)N1CCC(N(C)C(=O)c2ccc(Nc3nc4c(C5=CCN(C(=O)CCC(F)(F)F)CC5)cccn4n3)cc2)CC1` [Example 2-330, N-(1-isopropyl-4-piperidyl)-N-methyl-4-[[8-[1-(4,4,4-trifluorobutanoyl)-3,6-dihydro-2H-pyridin-4-yl]-[1,2,4]triazolo[1,5-a]pyridin-2-yl]amino]benzamide], with 13.4 nM. For `COCCN1CCN(C(=O)c2ccc(Nc3nc4c(C5=CCN(C(=O)CCC(F)(F)F)CC5)cccn4n3)cc2)CC1` [Example 2-331, 4,4,4-trifluoro-1-[4-[2-[4-[4-(2-methoxyethyl)piperazine-1-carbonyl]anilino]-[1,2,4]triazolo[1,5-a]pyridin-8-yl]-3,6-dihydro-2H-pyridin-1-yl]butan-1-one], the 50% inhibitory concentration (IC50) came to 8.9 nM.

In the case of `CN1C(C)(C)CC(NC(=O)c2ccc(Nc3nc4c(C5=CCN(C(=O)CCC(F)(F)F)CC5)cccn4n3)cc2)CC1(C)C` [Example 2-332, N-(1,2,2,6,6-pentamethyl-4-piperidyl)-4-[[8-[1-(4,4,4-trifluorobutanoyl)-3,6-dihydro-2H-pyridin-4-yl]-[1,2,4]triazolo[1,5-a]pyridin-2-yl]amino]benzamide], the IC50 came out at 9.2 nM. Then `CC(C)(CN1CCOCC1)NC(=O)c1ccc(Nc2nc3c(C4=CCN(C(=O)CCC(F)(F)F)CC4)cccn3n2)cc1` [Example 2-333, N-(1,1-dimethyl-2-morpholino-ethyl)-4-[[8-[1-(4,4,4-trifluorobutanoyl)-3,6-dihydro-2H-pyridin-4-yl]-[1,2,4]triazolo[1,5-a]pyridin-2-yl]amino]benzamide], with 5.5 nM; and `CN1CCC(NC(=O)c2ccc(Nc3nc4c(C5=CCN(C(=O)CCC(F)(F)F)CC5)cccn4n3)cc2)CC1` [Example 2-335, N-(1-methyl-4-piperidyl)-4-[[8-[1-(4,4,4-trifluorobutanoyl)-3,6-dihydro-2H-pyridin-4-yl]-[1,2,4]triazolo[1,5-a]pyridin-2-yl]amino]benzamide], with 14.3 nM. As for `CN(C)CCNC(=O)c1ccc(Nc2nc3c(C4=CCN(C(=O)CCC(F)(F)F)CC4)cccn3n2)cc1` [Example 2-336, N-[2-(dimethylamino)ethyl]-4-[[8-[1-(4,4,4-trifluorobutanoyl)-3,6-dihydro-2H-pyridin-4-yl]-[1,2,4]triazolo[1,5-a]pyridin-2-yl]amino]benzamide], the figure is 8.6 nM. On to `CN1CCCC(CNC(=O)c2ccc(Nc3nc4c(C5=CCN(C(=O)CCC(F)(F)F)CC5)cccn4n3)cc2)C1` (stereo not shown) [Example 2-337, N-[(1-methyl-3-piperidyl)methyl]-4-[[8-[1-(4,4,4-trifluorobutanoyl)-3,6-dihydro-2H-pyridin-4-yl]-[1,2,4]triazolo[1,5-a]pyridin-2-yl]amino]benzamide], for which the IC50 was determined as 28.9 nM.

Turning to `O=C(CCC(F)(F)F)N1CC=C(c2cccn3nc(Nc4ccc(C(=O)N5CCCC(N6CCOCC6)C5)cc4)nc23)CC1` (stereo not shown) [Example 2-339, 4,4,4-trifluoro-1-[4-[2-[4-(3-morpholinopiperidine-1-carbonyl)anilino]-[1,2,4]triazolo[1,5-a]pyridin-8-yl]-3,6-dihydro-2H-pyridin-1-yl]butan-1-one], the IC50 turned out to be 9.8 nM. Then `O=C(CCC(F)(F)F)N1CC=C(c2cccn3nc(Nc4ccc(C(=O)N5CCN(CC6CCCO6)CC5)cc4)nc23)CC1` (stereo not shown) [Example 2-340, 4,4,4-trifluoro-1-[4-[2-[4-[4-(tetrahydrofuran-2-ylmethyl)piperazine-1-carbonyl]anilino]-[1,2,4]triazolo[1,5-a]pyridin-8-yl]-3,6-dihydro-2H-pyridin-1-yl]butan-1-one], with 3.9 nM; and `O=C(CCC(F)(F)F)N1CC=C(c2cccn3nc(Nc4ccc(C(=O)N5CCCC(c6ccccn6)C5)cc4)nc23)CC1` (stereo not shown) [Example 2-341, 4,4,4-trifluoro-1-[4-[2-[4-[3-(2-pyridyl)piperidine-1-carbonyl]anilino]-[1,2,4]triazolo[1,5-a]pyridin-8-yl]-3,6-dihydro-2H-pyridin-1-yl]butan-1-one], with 11.4 nM. As for `CNC(=O)C1CN(C(=O)c2ccc(Nc3nc4c(C5=CCN(C(=O)CCC(F)(F)F)CC5)cccn4n3)cc2)CCN1Cc1ccccc1` (stereo not shown) [Example 2-342, 1-benzyl-N-methyl-4-[4-[[8-[1-(4,4,4-trifluorobutanoyl)-3,6-dihydro-2H-pyridin-4-yl]-[1,2,4]triazolo[1,5-a]pyridin-2-yl]amino]benzoyl] piperazine-2-carboxamide], the figure is 16.2 nM; as for `CC(=O)N1CC=C(c2cccn3nc(Nc4ccc(C(=O)N(C)C5CCN(C)CC5)cc4)nc23)CC1` [Example 2-344, 4-[[8-(1-acetyl-3,6-dihydro-2H-pyridin-4-yl)-[1,2,4]triazolo[1,5-a]pyridin-2-yl]amino]-N-methyl-N-(1-methyI-4-piperidyl)benzamide], 1800 nM.
